“Also recorded” adds a separate entry of the source.

Experiment [1] deals with granule cells of the dentate gyrus. Description: GABAergic activity (sIPSCs), whole-cell patch-clamp in acute brain slices. It is filed as cell-based, mouse. The conditions noted are these: for GABAergic activity (in words): Sortilin −/− mouse brain slices. The procedure: FIG. 8: Neuronal GABA activity is increased in Sortilin and SorCS2 −/− mice, and can be rescued by BDNF. A, model describing how dentate gyrus granule cells are under powerful inhibitory control by GABAergic basket cells. The basket cell excitability is in turn depressed by BDNF released from the granule cells (Holm et al. Submitted, 2008) B, the GABAergic activity was assessed by electrophysiological recordings from single neurons in an in vitro mouse brain slice preparation (P16-P20). In each experimental condition, the frequency of spontaneous inhibitory postsynaptic currents (sIPSCs) was measured in Hz. In control mice (wildtype, WT) the GABAergic activity was 2.96±0.53 Hz (n=33 cells). In Sortilin −/− (Sortilin KO) mice, this activity increased to 6.15±0.80 Hz (n=25 cells). In rescue experiments, exogenous BDNF (20 ng/ml) reversed the GABA activity of Sortilin KO mice back to WT levels, reaching 2.66±1.4 Hz (n=3 cells). For comparison, the GABAergic activity in SorCS2 −/− (SorCS2 KO) mice was 5.68±0.7 Hz (n=6), highlighting the importance of Vps10p proteins in these inhibitory cell functions. Error bars indicate S.E.M.
3-4 week wildtype and Sortilin deficient mice were examined for neurophysiological in vitro correlates of anxiety/depression like behavior. In fresh 350 μm thick brain slices, inhibitory GABAergic synaptic input to hippocampal granule cells were quantified in living tissues. Electrophysiological patch-clamp recordings were carried out from acute brain slices from WT, Sortilin and Sorcs2 knockout (KO) mice. Following deep isoflurane anesthesia, male mice were sacrifized and the brain was carefully dissected out and cooled. 350 um thick brain slices were cut on a Vibratome 3000 Plus, and the tissue rested in O2/CO2 bubbled Ringer solution for at least 1 hour before experimentation (Drasbek and Jensen 2006). Whole-cell patch-clamp recordings were carried out at 33° C. from the soma of identified granule cells of the dentate gyrus (Jensen and Mody 2001). Under conditions of blocked glutamatergic excitation, GABAergic activity was apparent as spontaneous inhibitory postsynaptic currents (sIPSCs) that could be blocked by the GABAA receptor antagonist SR95531 (100 μM). For each cell, the frequency of sIPSCs was analyzed and frequencies were pooled within each experimental group. In rescue experiments, BDNF (brain-derived neurotrophic factor, 20 ng/ml) was perfused to the brain slice for at least 5 min and the GABAergic activity was assessed. […] Subsequently, the pathophysiological neuronal activity was restored in Sortilin deficient mouse brain slices by administering exogenous brain-derived neurotrophic factor (BDNF 20 ng/ml) to the tissue bathing solution (FIG. 8B).
(In patch-clamp work, channel activity is measured electrically.)

For experiment [2], the system named is Sortilin −/− hippocampal CA1 synapses. The experiment is described as follows: NMDA receptor-dependent LTD in Sortilin −/− hippocampal slices (f-EPSP recording). It is filed as cell-based, mouse. The conditions noted are these: 40 ng/ml for at least 1 h before recording and throughout, LFS 1 Hz, 15 min. The procedure: FIG. 3: Impaired NMDA receptor-dependent LTD in Sortilin −/− and SorCS1 −/− mice. A, lack of LTD in sortilin −/− hippocampal CA1 synapses by the application of LFS (1 Hz, 15 min) to the Schaffer collaterals. In wt hippocampal CA1 synapses a LFS induces synaptic depression. B, rescue of NMDA receptor-dependent LTD in Sortilin −/− hippocampal CA1 synapses by cleavage-resistant proBDNF. […] LFS (1 Hz, 15 min) was applied to the Schaffer collaterals. In Sortilin −/− hippocampal slices incubated with control vehicle the LTD was still impaired. C, a similar experiment showing rescue of NMDA receptor-dependent LTD in sortilin −/− hippocampal CA1 synapses by 40 ng/ml purified soluble Sortilin. D, a similar experiment showing lack of LTD in SorCS1 −/− hippocampal CA1 synapses. […]
SorCS2 −/− mice were backcrossed onto a C57BL/6 background for more than ten generations and wild type C57BL/6 mice were used as control. […] After a recovery period of at least two h, the slices were moved to an interface chamber exposed to a humidified atmosphere of 95% O2 and 5% CO2 and we recorded field Exitatory Post-Synaptic Potentials (f-EPSP) using an Axoclamp-2B amplifier (Axon Instruments) with an artificial cerebral spinal fluid (ACSF; in mM: 126 NaCl, 2.5 KCl, 1.25 NaH2PO4, 2.5 CaCl2, 1.3 MgCl2, 10 D-glucose)-filled glass microelectrode (10-15 MΩ) positioned in the stratum radiatum of hippocampal area CA1. […]

The subject of experiment [3] is patient suffering from a mental and behavioural disorder. Description: Passive delivery device implanted into the brain of a patient with a mental and behavioural disorder (Examples 18, 19). The conditions noted are these: device for passive delivery surgically implanted into the brain. It is filed as in vivo, human. From the text: The soluble domain of human Sortilin is expressed recombinantly at a large scale in a mammalian cell culture and is subsequently purified by for example immunoaffinity chromatography. A device for passive delivery containing purified soluble Sortilin is surgically implanted into the brain of a patient suffering from a mental and behavioural disorder. Good effect is obtained and the patient is set on lifelong treatment.
The soluble domain of human Sortilin is expressed recombinantly at a large scale in a mammalian cell culture and is subsequently purified by for example immunoaffinity chromatography. Similarly, proBDNF is expressed and purified at a large scale. Soluble Sortilin and proBDNF is incubated together to form a preformed Sortilin:proBDNF complex. A device for passive delivery containing purified preformed Sortilin:proBDNF is surgically implanted into the brain of a patient suffering from a mental and behavioural disorder. Good effect is obtained and the patient is set on lifelong treatment.

As for `Br.COc1ccc(-c2ccc(=N)n(CCCC(=O)O)n2)cc1` [SR95531, reference compound], the “spontaneous inhibitory postsynaptic currents (sIPSCs)” value in experiment [1] (100 μM, blocked glutamatergic excitation) is reported as “blocked”.
“soluble Sortilin: purified soluble Sortilin, the luminal (Vps10p-domain) part of the receptor”: the “NMDA receptor-dependent LTD” value in experiment [2] and in experiment [2] (listed as recombinant soluble Sortilin) was “rescued” in each case. Further, the “effect of treatment in the patient” value in experiment [3] is “Good effect”.

B1: mature BDNF: mature brain-derived neurotrophic factor (protein)
chain: HSDPARRGELSVCDSISEWVTAADKKTAVDMSGGTVTVLEKVPVSKGQLKQYFYETKCNPMGYTKEGCRGIDKRHWNSQCRTTQSYVRALTMDSKKRIGWRFIRIDTSCVCTLTIKRGR
For B1, in experiment [1] (Sortilin KO mouse brain slices, 20 ng/ml, n=3 cells), the “frequency of spontaneous inhibitory postsynaptic currents (sIPSCs)” value came out at 2.66±1.4 Hz. In addition, the “GABAergic activity (in words)” value in experiment [1] (20 ng/ml) was “restored”; in experiment [1] (20 ng/ml, listed as exogenous BDNF) it was “normalizes; also recorded: reversed”.
